Results from PMC12246642 (iScience, 2025).

Tests used:
[1] = target: His tag SARS-CoV-2 3CLpro (1-306) F305A, Q306A (Severe acute respiratory syndrome coronavirus 2, UniProt P0DTD1, F3568A/Q3569A); type: binding
[2] = target: T1, SARS-CoV-2 Mpro (Severe acute respiratory syndrome coronavirus 2, UniProt P0DTD1); test: Covalent bond (adduct) formation kinetics by IR-MALDESI intact protein MS; type: binding; conditions: for covalent complex formation in the titration of compound versus Mpro: up to 5-fold molar excess of compound, unquenched condition for compound 5
[3] = target: T1, SARS-CoV-2 Mpro; test: biochemical; type: biochemical; conditions: aldehyde hydration penalty taken into account

With CS(=O)(=O)CC[C@@H](C#N)NC(=O)[C@H](CC1CC1)NC(=O)OCc1ccccc1 [Compound 8, benzyl ((S)-1-(((S)-1-cyano-3-(methylsulfonyl)propyl)amino)-3-cyclopropyl-1-oxopropan-2-yl)carbamate] the Kd [1] was “No Activity” and the T1/2 [1] was “No activity”.
With COc1cccc2[nH]c(C(=O)N[C@@H](CC3CC3)C(=O)N[C@H](C#N)C[C@@H]3CCNC3=O)cc12 [Compound 5, N-((S)-1-(((S)-1-cyano-2-((S)-2-oxopyrrolidin-3-yl)ethyl)amino)-3-cyclopropyl-1-oxopropan-2-yl)-4-methoxy-1H-indole-2-carboxamide] the “time for which covalent binding persists after chase (reversibility of adduct formation)” value [2] was no more than 1 h and the “covalent complex formation in the titration of compound versus Mpro” value [2] was roughly 100%.
In the case of COc1cccc2[nH]c(C(=O)N[C@@H](CC3CC3)C(=O)N[C@H](C=O)C[C@@H]3CCNC3=O)cc12 [Compound 1, N-((S)-3-cyclopropyl-1-oxo-1-(((S)-1-oxo-3-((S)-2-oxopyrrolidin-3-yl)propan-2-yl)amino)propan-2-yl)-4-methoxy-1H-indole-2-carboxamide], the “likely affinity accounting for the hydration penalty” value [3] is reported as roughly 10 pM, the “time for which covalent binding persists after chase (reversibility of adduct formation)” value [2] is reported as “at least 4 h” and the “covalent complex formation in the titration of compound versus Mpro” value [2] is reported as “did not reach saturation”.
For O=C[C@H](C[C@@H]1CCNC1=O)NC(=O)[C@H](CC1CC1)NC(=O)OCc1ccccc1 [Compound 2, benzyl ((S)-3-cyclopropyl-1-oxo-1-(((S)-1-oxo-3-((S)-2-oxopyrrolidin-3-yl)propan-2-yl)amino)propan-2-yl)carbamate], the “likely affinity accounting for the hydration penalty” value [3] was roughly 10 pM.
